Data published in patent US11142526B2, “Spirocycle compounds and methods of making and using same” (H. Lundbeck A/S, priority 2017, dated 2021).
Read-outs that look alike come from different tables or passages of the source.

How the values were obtained:
[1] = biological target: MAGL (Mus musculus (Mouse), UniProt O35678); assay: In vitro competitive activity-based protein profiling, mouse brain proteome; assay type: biochemical; conditions: for inhibition at 1 µM: mouse; for IC50: mouse brain
[2] = biological target: MAGL (Homo sapiens (Human), UniProt Q99685); assay: In vitro competitive activity-based protein profiling (gel-based, FP-Rh or HT-01 probe); assay type: biochemical
Sequence of MAGL (Homo sapiens (Human), UniProt Q99685) (Q99685 whole entry): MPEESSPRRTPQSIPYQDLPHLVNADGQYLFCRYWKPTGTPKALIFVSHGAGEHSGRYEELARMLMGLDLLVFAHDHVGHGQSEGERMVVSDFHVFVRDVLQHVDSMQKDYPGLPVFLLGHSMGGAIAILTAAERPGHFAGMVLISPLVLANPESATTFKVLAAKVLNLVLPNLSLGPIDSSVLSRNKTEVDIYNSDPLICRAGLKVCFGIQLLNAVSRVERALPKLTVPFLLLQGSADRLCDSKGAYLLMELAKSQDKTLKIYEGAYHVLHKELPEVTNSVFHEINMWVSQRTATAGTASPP
Experimental: In Vitro Competitive Activity-Based Protein Profiling.
Proteomes (human prefrontal cortex or cell membrane fractions) (50 μL, 1.0 mg/mL total protein concentration) were preincubated with varying concentrations of inhibitors at 37° C. After 30 min, FP-Rh or HT-01 (1.0 μL, 50 μM in DMSO) was added and the mixture was incubated for another 30 min at room temperature. Reactions were quenched with SDS loading buffer (15 μL—4×) and run on SDS-PAGE.

[3] = human PC3, read-out: MAGL % Inhibition at 1 μM (human PC3)
[4] = human PFC (prefrontal cortex), read-out: MAGL % Inhibition at 1 μM (human PFC)
[5] = human PC3, read-out: MAGL Human PC3 (IC50)

Sequence of MAGL (Mus musculus (Mouse), UniProt O35678) (O35678 whole entry): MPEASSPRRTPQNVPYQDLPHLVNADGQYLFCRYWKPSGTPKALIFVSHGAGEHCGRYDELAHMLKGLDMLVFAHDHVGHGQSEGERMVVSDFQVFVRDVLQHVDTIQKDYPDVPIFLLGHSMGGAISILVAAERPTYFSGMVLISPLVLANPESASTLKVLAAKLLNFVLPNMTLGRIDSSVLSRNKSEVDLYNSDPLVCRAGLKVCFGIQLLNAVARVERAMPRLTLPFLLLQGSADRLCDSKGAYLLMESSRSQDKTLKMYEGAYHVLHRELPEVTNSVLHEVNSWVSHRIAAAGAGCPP

inhibition at 1 µM [1] | inhibition at 1 µM [2, 3] | inhibition at 1 µM [2, 4] | IC50 [2, 5] | IC50 ([2]; human PFC (prefrontal cortex), read-out: MAGL Human PFC (IC50)) | IC50 [1] | SMILES
> 75% | > 75% | > 75% | < 0.1 µM | – | – | COc1ccnc(C2(C(=O)N3CCCC34CCN(C(=O)OC(C(F)(F)F)C(F)(F)F)CC4)CC2)n1 [Example 203, 1,1,1,3,3,3-Hexafluoropropan-2-yl 1-(1-(4-methoxypyrimidin-2-yl)cyclopropane-1-carbonyl)-1,8-diazaspiro [4.5]decane-8-carboxylate]
> 75% | > 75% | > 75% | < 0.1 µM | – | – | CN(C(=O)c1cnc2cccnn12)C1(C)CCN(C(=O)OC(C(F)(F)F)C(F)(F)F)CC1 [Example 168, 1,1,1,3,3,3-Hexafluoropropan-2-yl 4-methyl-4-(N-methylimidazo[1,2-b]pyridazine-3-carboxamido) piperidine-1-carboxylate]
> 75% | – | > 75% | < 0.1 µM | – | – | O=C(OC(C(F)(F)F)C(F)(F)F)N1CCC2(CCCN2C(=O)c2cnc(Cl)nc2N2CCCC2)CC1 [Example 117, 1,1,1,3,3,3-Hexafluoropropan-2-yl 1-(2-chloro-4-(pyrrolidin-1-yl)pyrimidine-5-carbonyl)-1,8-diazaspiro [4.5]decane-8-carboxylate]
> 75% | – | > 75% | < 0.1 µM | < 0.1 µM | – | O=C(OC(C(F)(F)F)C(F)(F)F)N1CCC2(CCCN2C(=O)c2cc(N3CCCC3)nc(Cl)n2)CC1 [Example 119, 1,1,1,3,3,3-Hexafluoropropan-2-yl 1-(2-chloro-6-(pyrrolidin-1-yl)pyrimidine-4-carbonyl)-1,8-diazaspiro [4.5]decane-8-carboxylate]
> 75% | – | – | < 0.1 µM | – | 0.1 to 1 µM | Cn1ccc(C(=O)N2CCCC23CCN(C(=O)OC(C(F)(F)F)C(F)(F)F)CC3)n1 [Example 79, 1,1,1,3,3,3-Hexafluoropropan-2-yl 1-(1-methyl-1H-pyrazole-3-carbonyl)-1,8-diazaspiro[4.5] decane-8-carboxylate]
> 75% | – | > 75% | – | – | – | O=C(OC(C(F)(F)F)C(F)(F)F)N1CCC2(CCCN2C(=O)c2cn3cc(C(F)(F)F)cc(Cl)c3n2)CC1 [Example 116, 1,1,1,3,3,3-Hexafluoropropan-2-yl 1-(8-chloro-6-(trifluoromethyl)imidazo[1,2-a]pyridine-2-carbonyl)-1,8-diazaspiro[4.5] decane-8-carboxylate]
> 75% | – | – | < 0.1 µM | – | < 0.1 µM | CC(C)n1cc(C(=O)N2CCCC23CCN(C(=O)OC(C(F)(F)F)C(F)(F)F)CC3)cn1 [Example 71, 1,1,1,3,3,3-Hexafluoropropan-2-yl 1-(1-isopropyl-1H-pyrazole-4-carbonyl)-1,8-diazaspiro[4.5] decane-8-carboxylate]
> 75% | – | > 75% | < 0.1 µM | – | – | O=C(OC(C(F)(F)F)C(F)(F)F)N1CCC2(CCCN2Cc2cnc(N3CCN(C4CC4)CC3)s2)CC1 [Example 132, 1,1,1,3,3,3-Hexafluoropropan-2-yl 1-((2-(4-cyclopropylpiperazin-1-yl)thiazol-5-yl)methyl)-1,8-diazaspiro[4.5] decane-8-carboxylate]
> 75% | > 75% | > 75% | < 0.1 µM | – | – | CC1(NC(=O)c2nnc3n2CCN(C2CCC2)C3)CCN(C(=O)OC(C(F)(F)F)C(F)(F)F)CC1 [Example 205, 1,1,1,3,3,3-Hexafluoropropan-2-yl 4-(7-cyclobutyl-5,6,7,8-tetrahydro-[1,2,4]triazolo[4,3-a]pyrazine-3-carboxamido)-4-methylpiperidine-1-carboxylate]
> 75% | – | – | < 0.1 µM | – | < 0.1 µM | O=C(OC(C(F)(F)F)C(F)(F)F)N1CCC2(CCCN2C(=O)c2cnn(Cc3ccccc3)c2)CC1 [Example 88, 1,1,1,3,3,3-Hexafluoropropan-2-yl 1-(1-benzyl-1H-pyrazole-4-carbonyl)-1,8-diazaspiro[4.5] decane-8-carboxylate]
> 75% | – | – | < 0.1 µM | – | < 0.1 µM | Cc1c(C(=O)N2CCCC23CCN(C(=O)OC(C(F)(F)F)C(F)(F)F)CC3)[nH]c2ccc(F)cc12 [Example 104, 1,1,1,3,3,3-Hexafluoropropan-2-yl 1-(5-fluoro-3-methyl-1H-indole-2-carbonyl)-1,8-diazaspiro[4.5]decane-8-carboxylate]
> 75% | > 75% | > 75% | – | – | – | CN(C(=O)C1(c2ncccn2)CC1)C1(C)CCN(C(=O)OC(C(F)(F)F)C(F)(F)F)CC1 [Example 177, 1,1,1,3,3,3-Hexafluoropropan-2-yl 4-methyl-4-(N-methyl-1-(pyrimidin-2-yl)cyclopropane-1-carboxamido) piperidine-1-carboxylate]
> 75% | – | – | < 0.1 µM | – | < 0.1 µM | O=C(OC(C(F)(F)F)C(F)(F)F)N1CCC2(CCCN2Cc2ccc3cccc(Cl)c3n2)CC1 [Example 57, 1,1,1,3,3,3-Hexafluoropropan-2-yl 1-((8-chloroquinolin-2-yl)methyl)-1,8-diazaspiro[4.5] decane-8-carboxylate]
> 75% | – | – | < 0.1 µM | – | < 0.1 µM | O=C(OC(C(F)(F)F)C(F)(F)F)N1CCC2(CCCN2C(=O)c2ccc3scnc3c2)CC1 [Example 86, 1,1,1,3,3.3-Hexafluoropropan-2-yl 1-(benzo[d]thiazole-5-carbonyl)-1,8-diazaspiro[4.5] decane-8-carboxylate]
> 75% | – | > 75% | < 0.1 µM | – | – | O=C(OC(C(F)(F)F)C(F)(F)F)N1CCC2(CCCN2C(=O)c2cn3ccncc3n2)CC1 [Example 159, 1,1,1,3,3,3-Hexafluoropropan-2-yl 1-(imidazo[1,2-a]pyrazine-2-carbonyl)-1,8-diazaspiro[4.5] decane-8-carboxylate]
> 75% | – | > 75% | < 0.1 µM | – | – | O=C(O)Cn1cc(CN2CCCC23CCN(C(=O)OC(C(F)(F)F)C(F)(F)F)CC3)c(-c2cccc(Cl)c2)n1 [Example 118, 2-(3-(3-Chlorophenyl)-4-((8-(((1,1,1,3,3,3-hexafluoropropan-2-yl)oxy)carbonyl)-1,8-diazaspiro[4.5]decan-1-yl)methyl)-1H-pyrazol-1-yl)acetic acid]
> 75% | – | > 75% | < 0.1 µM | – | – | Cc1cc(Cl)c2nc(CN3CCCC34CCN(C(=O)OC(C(F)(F)F)C(F)(F)F)CC4)cn2c1 [Example 115, 1,1,1,3,3,3-Hexafluoropropan-2-yl 1-((8-chloro-6-methylimidazo [1,2-a]pyridin-2-yl)methyl)-1,8-diazaspiro[4.5] decane-8-carboxylate]
> 75% | > 75% | – | – | – | – | O=C(OC(C(F)(F)F)C(F)(F)F)N1CCC2(CCCN2C(=O)c2cn3nc(Cl)ccc3n2)CC1 [Example 163, 1,1,1,3,3,3-Hexafluoropropan-2-yl 1-(6-chloroimidazo[1,2-b]pyridazine-2-carbonyl)-1,8-diazaspiro[4.5] decane-8-carboxylate]
< 25% | – | < 25% | – | – | – | O=C(OC(C(F)(F)F)C(F)(F)F)N1CCC2(CCCN2C(=O)c2ncccn2)CC1 [Example 12, 1,1,1,3,3,3-Hexafluoropropan-2-yl 1-(pyrimidine-2-carbonyl)-1,8-diazaspiro[4.5]decane-8-carboxylate]
> 75% | – | > 75% | < 0.1 µM | – | – | Cc1c(Cl)c(C(=O)N2CCCC23CCN(C(=O)OC(C(F)(F)F)C(F)(F)F)CC3)nn1C [Example 131, 1,1,1,3,3,3-Hexafluoropropan-2-yl 1-(4-chloro-1,5-dimethyl-1H-pyrazole-3-carbonyl)-1,8-diazaspiro[4.5] decane-8-carboxylate]
> 75% | > 75% | > 75% | – | – | – | Cc1cccnc1C1(C(=O)N2CCCC23CCN(C(=O)OC(C(F)(F)F)C(F)(F)F)CC3)CC1 [Example 30, 1,1,1,3,3,3-Hexafluoropropan-2-yl 1-(1-(3-methylpyridin-2-yl)cyclopropane-1-carbonyl)-1,8-diazaspiro[4.5]decane-8-carboxylate]
< 25% | – | > 75% | – | – | – | O=C(O)Cn1cc(Cl)c(C(=O)N2CCCC23CCN(C(=O)OC(C(F)(F)F)C(F)(F)F)CC3)n1 [Example 173, 2-(4-Chloro-3-(8-(((1,1,1,3,3,3-hexafluoropropan-2-yl)oxy)carbonyl)-1,8-diazaspiro[4.5]decane-1-carbonyl)-1H-pyrazol-1-yl)acetic acid]
> 75% | > 75% | > 75% | < 0.1 µM | – | – | O=C(OC(C(F)(F)F)C(F)(F)F)N1CCC2(CCCN2C(=O)c2cnn3c2NCCC3)CC1 [Example 147, 1.1,1,3,3,3-Hexafluoropropan-2-yl 1-(4,5,6,7-tetrahydropyrazolo [1,5-a]pyrimidine-3-carbonyl)-1,8-diazaspiro[4.5] decane-8-carboxylate]
> 75% | > 75% | > 75% | < 0.1 µM | – | – | Cc1nn2cccnc2c1C(=O)N1CCCC12CCN(C(=O)OC(C(F)(F)F)C(F)(F)F)CC2 [Example 171, 1,1,1,3,3,3-Hexafluoropropan-2-yl 1-(2-methylpyrazolo[1,5-a]pyrimidine-3-carbonyl)-1,8-diazaspiro[4.5] decane-8-carboxylate]
